Laboratory results as given in US20240252488A1 (KOREA RESEARCH INSTITUTE OF CHEMICAL TECHNOLOGY, priority 2020, published 2024).
pKd: −log10 of the molar value.

What was measured:
[1] = system: FADD−/− Jurkat cells; experiment: Necroptosis inhibition assay, TNF-α-induced necroptosis (CellTiter-Glo 2.0); type: cell-based, human; conditions: TNF-α 15 ng/mL; for Necroptosis inhibition assay (Rescue %) 1 μM: compound 1 μM; for Necroptosis inhibition assay (Rescue %) 10 μM: compound 10 μM
Method in brief: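 Tested at three fixed concentrations (0.1, 1, 10 μM final) with a 30-minute room-temperature preincubation ahead of 15 ng/mL TNF-α challenge lasting 20 to 24 hours. Inhibition rate and cytotoxicity derive from ATP luminescence.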

[2] = target: T1, MLKL (Homo sapiens, UniProt Q8NB16); experiment: MLKL degradation assay in HepG2 cell line (western blot); type: cell-based; set-up: endogenous in cells; host or cells: HepG2 or HaCaT; conditions: cell line not given; for Degradation assay (Degradation %) 1 μM: compound 1 μM; for Degradation assay (Degradation %) 10 μM: compound 10 μM
T1 sequence (Q8NB16 1-471): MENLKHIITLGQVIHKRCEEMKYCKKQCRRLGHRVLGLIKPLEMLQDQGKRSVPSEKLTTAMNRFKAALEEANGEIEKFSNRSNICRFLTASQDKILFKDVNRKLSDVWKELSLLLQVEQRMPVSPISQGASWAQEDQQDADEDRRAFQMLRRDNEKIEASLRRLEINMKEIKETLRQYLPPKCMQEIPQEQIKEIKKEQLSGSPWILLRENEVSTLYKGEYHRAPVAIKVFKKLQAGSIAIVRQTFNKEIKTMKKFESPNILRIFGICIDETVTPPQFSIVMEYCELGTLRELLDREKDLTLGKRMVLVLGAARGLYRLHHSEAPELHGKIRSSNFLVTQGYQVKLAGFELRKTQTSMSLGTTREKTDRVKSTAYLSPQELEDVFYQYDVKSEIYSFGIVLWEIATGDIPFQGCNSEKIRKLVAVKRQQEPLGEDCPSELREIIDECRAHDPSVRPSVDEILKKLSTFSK
Method in brief: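 Degradation is judged from MLKL band intensity on immunoblots of HepG2 lysates taken after 20-24 hours of compound at final 1 or 10 μM.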

[3] = target: T1, MLKL; experiment: Measurement of binding affinity with MLKL receptor (competitive binding assay, Kd); set-up: made in house; host or cells: HEK 293 cell line (T7 phage in E. coli BL21-derived host is also described)
Method in brief: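 Kd from an immobilized-ligand competition format: the DNA-tagged kinase from HEK 293 expression is eluted and quantified by qPCR. Compounds added from 111× DMSO stocks, final DMSO 0.9%.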

Degradation assay (Degradation %) 1 μM [2] [%] | Degradation assay (Degradation %) 10 μM [2] [%] | pKd [3] | Compound | Necroptosis inhibition assay (Rescue %) 1 μM [1] [%] | Necroptosis inhibition assay (Rescue %) 10 μM [1] [%]
82.82 | 82.05 | 7.89 | Nc1ncc(-c2cnn(C3CCN(CCC4CCN(C(=O)CNc5cccc6c5C(=O)N(C5CCC(=O)NC5=O)C6=O)CC4)CC3)c2)cc1C(=O)OC(C(=O)Nc1ccc(F)cc1)c1ccccc1 (stereo not shown) [TDH-303, 2-((4-fluorophenyl)amino)-2-oxo-1-phenylethyl 2-amino-5-(1-(1-(2-(1-((2-(2,6-dioxopiperidin-3-yl)-1,3-dioxoisoindolin-4-yl)glycyl)piperidin-4-yl)ethyl)piperidin-4-yl)-1H-pyrazol-4-yl)nicotinate] | 10.34 | 17.69
71.77 | 58.09 | 8.70 | Nc1ncc(-c2cnn(C3CCN(CC4CCN(C(=O)COc5ccc6nnn(C7CCC(=O)NC7=O)c(=O)c6c5)CC4)CC3)c2)nc1C(=O)O[C@@H](C(=O)Nc1ccc(F)cc1)c1ccccc1 (stereo partly drawn) [TDH-169, (R)-2-((4-fluorophenyl)amino)-2-oxo-1-phenylethyl 3-amino-6-(1-(1-((1-(2-((3-(2,6-dioxopiperidin-3-yl)-4-oxo-3,4-dihydrobenzo[d][1,2,3]triazin-6-yl)oxy)acetyl)piperidin-4-yl)methyl)piperidin-4-yl)-1H-pyrazol-4-yl)pyrazine-2-carboxylate] | 68.09 | 50.74
